Measured values as given in patent publication US12516293B2, “Reagents and methods with Wnt agonists and bioactive lipids for generating and expanding cardiomyocytes” (The Board of Trustees of the Leland Stanford Junior …, priority 2018, dated 2026).

Legend:
Format in all cases: cell-based, human
[1] = test system: hiPSC-CMs; test: hiPSC-CM expansion upon serial passaging
[2] = test system: TCF/LEF; test: TOPFlash TCF/LEF luciferase reporter in day 12 hiPSC-CMs; conditions: P0 hiPSC-CMs, 24 hours
Method: Day 12 hiPSC-CMs were transfected for 48h with a TCF reporter plasmid (TOPflash M50, Addgene) or the mutant reporter plasmid (TOPflash M51, Addgene) and the use of Lipofectamine 3000 (Invitrogen). 72h after transfection cells were treated with various small molecules for 24h. Cells were lysed and mixed with luciferase substrate (Promega) and the firefly luciferase expression was measured with a 96-well micro plate reader (Fisher).

[3] = test system: hiPSC-CMs; test: Real-time PCR / immunostaining of cardiac gene expression in hiPSC-CMs; conditions: CHIR treatment, qPCR
Method: For quantitative analysis of gene expression, RNA was extracted with a lysis buffer (Qiagen) from hiPSC-CMs and stored at −80° C. Total RNA from each sample was purified from cell lysate using a RNA purification kit (Qiagen). cDNA was made using iScript cDNA synthesis kit (BioRad). Quantitative PCR was performed using a 96-well thermocycler system (Biorad) with SYBR Green substrate (Affymetrix) for 40 cycles. All primers sequences were obtained from the PrimerBank (Massachusetts General Hospital/Harvard Medical School) online database. […] Day 12 hiPSC-CMs were cultured in CHIR continuously for 2 months with serial passaging followed by CHIR withdrawal for an additional month.

[4] = test system: hiPSC-CMs; test: Motion-derived contractility of day 30 hiPSC-CMs; conditions: day 30 hiPSC-CMs vs control
From the text: These studies illustrate an additional role for S1P/LPA to regulate cell cycle activity in well-differentiated hiPSC-CMs and synergize with β-catenin signaling to increase hiPSC-CM proliferation.

[5] = test system: hiPSC-CMs; test: Cell cycle activity in well-differentiated hiPSC-CMs (ki67, pHH3, cell count)
Method: To address this, well-differentiated hiPSC-CMs were generated (e.g. day 30 or later) using chemically-defined protocols (Burridge et al. 2014; Churko et al. 2013; Sharma et al. 2015) (Movie S1) and treated them with S1P/LPA or CHIR or both (FIG. 18A). The presence of S1P/LPA receptors in these cells was first validated (FIG. 21). Immunofluorescence staining was then performed for ki67, a marker of cell cycle activity, and phospho Histone H3 (pHH3), a mitosis marker, in cardiac troponin T (TnT) positive cells.

[6] = test system: TCF/LEF; test: TOPFlash TCF/LEF luciferase reporter in hiPSCs; conditions: treatment alone, 2 hours
Method: and day 30 hiPSC-CMs were replated in 96-well plates and cultured for 2-3 days before transfection with Lipofectamine (Invitrogen) and TOPFlash (TCF/LEF) luciferase Wnt signaling reporter plasmid (M50, Addgene) at 100 ng/well. After 48 hours, media was changed, and cells were subjected to different treatments for 2 hours before lysis and luciferase (Promega) luminescence was measured with a standard luminescence plate reader. […] It was studied whether S1P/LPA treatment of undifferentiated hiPS cells, either alone or in combination with CHIR, could increase the level of nuclear β-catenin. […] To examine whether the increase in nuclear β-catenin level results in an activation of Wnt signaling at the transcriptional level, hiPSCs were transfected with the previously described TOPFlash luciferase reporter plasmid^23 ([…] et al. 2003). This system provides a proportionate visualization of Wnt transcriptional activity using bioluminescence. Subsequently, the cells were treated with dimethyl sulfoxide (DMSO), CHIR, S1P/LPA, or a combination of S1P/LPA and CHIR. […] When S1P/LPA was combined with CHIR, the TCF/LEF-luciferase activity was further increased to more than 60-fold compared with DMSO control (FIG. 16C).

[7] = test system: hiPSC-CMs; test: Single cell RNA sequencing of day 12 hiPSC-CMs
Method: For the single cell gene expression replated hiPSC-CMs were treated at day 12 with DMSO, CHIR99021 or C59 for 24 hours. At day 13 cells were digested with TrypLE Select Enzyme for about 5 minutes and dissociated with gentle pipetting. […] Single cell analysis was performed with the Loupe Cell Browser software. To investigate the global transcriptional changes of hiPSC-CMs in response to gain and loss of Wnt signaling, single cell RNA sequencing was performed in day 12 hiPSC-CMs treated for 24 hours with either DMSO (CTR), CHIR or C59.

[8] = test system: TCF/LEF; test: TOPFlash TCF/LEF luciferase reporter in day 30 hiPSC-CMs; conditions: day 30 cardiomyocytes, 2-hour treatment
Method: […] and day 30 hiPSC-CMs were replated in 96-well plates and cultured for 2-3 days before transfection with Lipofectamine (Invitrogen) and TOPFlash (TCF/LEF) luciferase Wnt signaling reporter plasmid (M50, Addgene) at 100 ng/well. After 48 hours, media was changed, and cells were subjected to different treatments for 2 hours before lysis and luciferase (Promega) luminescence was measured with a standard luminescence plate reader. To determine the mechanism through which S1P/LPA regulate cell cycle activity in hiPSC-CMs, it was evaluated whether S1P and LPA treatment can directly stimulate Wnt/β-catenin signaling in day 30 cardiomyocytes using the TOPFlash (TCF/LEF-luciferase) reporter.

[9] = test system: hiPSC-CMs; test: ki67/pHH3 proliferation and binucleation of hiPSC-CMs (immunofluorescence)
Method: Immunohistochemistry was performed with the incubation of primary antibodies overnight followed by 2 hours of incubation with various Alexa fluorescence conjugated secondary antibodies. Images were made with confocal (Zeiss LSM 710) or regular immunofluorescence microscopy (Leica DM IL LED). Primaries used in this study were cardiac troponin T (MS-295, Fisher), Ki67 (ab15580, Abcam), pHH3 (#9701, Cell Signaling), aurora B (ab2254, Abcam), alpha sarcomeric actinin ([…], Sigma-Aldrich), MLC2V (ab48003, Abcam), phospo AKT […] (#9275, Cell Signaling). […] To examine this, the percentage was determined of troponin T (TnT) positive hiPSC-CMs that express the cell cycle marker ki67 or the mitosis marker phospho-histone H3 (pHH3) at each passage after treatment with CHIR or DMSO (CTR) (FIG. 2A-C). […] The short-term (24 hrs) changes were assessed in proliferation rate of day 12 hiPSC-CMs (P0) after treatment with CHIR-, CTR-, or C59, a specific inhibitor of Wnt signaling (FIG. 2I-J).

For `Cc1c[nH]c(-c2cnc(NCCNc3ccc(C#N)cn3)nc2-c2ccc(Cl)cc2Cl)n1` [CHIR99021], the “increase in the total cell number” value ([1]; 2.0 μM CHIR from day 12, serial passaging) was “greater than 100 fold”, the “increase in CM number” value ([1]; 2.0 μM CHIR from day 12, serial passaging, TnT+ cells vs DMSO) was “greater than 100 fold” and the cell death ([1]; 2.0 μM CHIR, Caspase 3 staining) was “without notable cell death”. The “number of passages possible” value ([1]; 2.0 μM CHIR, DMSO cells cease to proliferate after first passage) was “up to 5 times”, the “hiPSC-CMs generated from 2 million day 12 hiPSC-CMs” value ([1]; CHIR treatment with serial passaging) was 300-900 million and the “time to confluence after passaging” value ([1]; CHIR-treated early passage hiPSC-CMs) was 5 to 7 days. For the same compound, the “TnT purity during expansion” value ([1]; expansion of beating hiPSC-CMs) was greater than 95%, the “CM purity with each passage (TnT+)” value ([1]; flow cytometry, vs DMSO which decreased) was “maintain, if not slightly enrich” and the “TCF/LEF activity (TOPFlash)” value [2] was “dramatic increase in TCF/LEF activity”. For the same compound, the “Wnt signaling target gene expression (Axin2, LEF, CCND2)” value [3] was “induction of Wnt signaling target gene expression”, the “markers of hiPSC-CM maturation (MYL2, MYH7, MYOM1)” value [3] was “down-regulated” and the “beating frequency or contractile force generation” value [4] was “no significant difference”. For the same compound, the “number of hiPSC-CMs” value ([5]; treatment alone, 48 hours) was “increase in cell number”, the “number of bi- or multinucleated cardiomyocytes” value ([5]; two-day treatment) was “did not increase the number of bi- or multinucleated cardiomyocytes” and the “TCF/LEF-luciferase activity, increase vs DMSO control” value [6] was roughly 40 fold. For the same compound, the “cardiac progenitor markers Isl1 and MESP1/2 expression” value ([7]; 24 hours CHIR) was “did not result in increased expression”, the “Wnt signaling target genes and cardiogenic transcription factors expression” value ([7]; 24 hours, CHIR vs CTR or C59) was “highly upregulated” and the “mature cardiac genes expression” value ([7]; 24 hours, CHIR vs CTR or C59) was “dramatically downregulated”. The “TCF/LEF-luciferase activity (TOPFlash)” value [8] was “activated”, the “extension of window of proliferation (ki67, pHH3)” value ([9]; CHIR vs CTR at each passage) was “up to 5 passages” and the binucleation ([9]; compared with CTR or C59 treated cells) was “less binucleation”. For the same compound, the “ki67 expression / proliferation rate” value ([9]; day 12 hiPSC-CMs (P0), 24 hrs treatment) was “significant difference in ki67 expression”.
